We go through twelve molecules from US6809119B2, “Branched chain amino acid-dependent aminotransferase inhibitors and their use in the treatment of neurodegenerative diseases” (Warner-Lambert Company LLC, priority 2001, dated 2004).

Data set [1] has as its target T1, rat BCAT cytosolic form (rrBCATc) (Rattus norvegicus, UniProt P54690).
T1 construct: inferred from purification on a Ni-charged chelating column with imidazole elution; made in house; host or cells: E. coli BL21(DE3)
T1 sequence (P54690 1-411): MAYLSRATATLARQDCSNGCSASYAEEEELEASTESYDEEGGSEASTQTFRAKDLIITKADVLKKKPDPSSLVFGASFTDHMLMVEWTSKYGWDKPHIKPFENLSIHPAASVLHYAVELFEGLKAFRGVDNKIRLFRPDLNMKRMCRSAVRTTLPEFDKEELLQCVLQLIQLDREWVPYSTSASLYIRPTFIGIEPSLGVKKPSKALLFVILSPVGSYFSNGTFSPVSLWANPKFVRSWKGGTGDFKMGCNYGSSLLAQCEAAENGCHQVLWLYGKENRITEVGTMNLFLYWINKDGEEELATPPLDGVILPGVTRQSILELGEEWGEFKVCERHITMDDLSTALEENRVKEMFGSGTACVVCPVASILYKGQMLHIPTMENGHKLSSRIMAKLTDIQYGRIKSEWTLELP
Nature of the data set: In vitro coupled enzyme assay, rat BCAT cytosolic form. In kind it is biochemical. Conditions: inhibition of recombinant rat BCATc; coupled glutamate dehydrogenase/NADH assay, 37° C., pH 7.8. The method, then: (§1) In vitro enzyme assay: human Branched Chain Amino Acid Aminotransferase cytosolic form (hBCATc) and mitochondrial form (hBCATm) as well as rat BCAT cytosolic form were assayed at 37° C. in 25 mM phosphate buffer pH 7.8. In addition, 2 mM DTT and 12.5 mM EDTA were added to the assay mixture. A coupling enzyme assay was used to monitor the production of glutamate. The formation of NADH from NAD+at […] was followed on a 96-well plate Molecular Devices plate reader. The following components were used in this coupled assay: 4 mM ADP, 1 mM NAD+, 750 μM L-Leucine, 500 μM a-ketoglutarate, 10 μM pyridoxal phosphate, 1 unit glutamate dehydrogenase, and 1.25 μg of the appropriate BCAT enzyme. Inhibitions by compounds were assayed by adding various concentrations to this coupled assay procedure as a DMSO stock up to a 5% v/v DMSO/buffer ratio.
(§2) Enzyme Preparation: humanBCATc and ratBCATc were expressed in BL21(DE3) cells. A growing culture of cells was induced with 1 mM IPTG at room temperature overnight. These cells were harvested by centrifugation at 10,000 g for 20 minutes. The supernatant was discarded, and the cells were stored at −80° C. until needed. The protein was purified by the following method. The cell paste was resuspended in extraction buffer (0.1 M phosphate, pH 8.0, with 0.01 M Tris-HCL and 5 mM TCEP and then lysed on a French Press at 1000 psi. The lysate was centrifuged at 10,000 g for 15 minutes, and the pellet was discarded. The supernatant was loaded onto a Hitrap Chelating column previously charged with 0.1 M NiSO4 and washed with 3 to 4 column volumes of extraction buffer. The column was then washed with 0.01 Tris, pH 7.5, 10% glycerol, 150 mM NaCl, 5 mM TCEP for two column volumes. The column was then further washed with two column volumes of 0.1 M phosphate, pH 6.0, 0.01 M Tris, 10% glycerol, and 750 mM NaCl. Finally, the column was washed with two column volumes of the same buffer plus 50 mM imidazole. The BCAT enzyme was then eluted with the same buffer but with 350 mM imidazole. The eluant was then dialyzed overnight against 10 mM phosphate buffer pH 8.0, 10% glycerol, and 5 mM TCEP. The dialyzed protein was then loaded onto a Q-sepharose column and eluted using a salt gradient. Active fractions were collected and further purified on a Superose-12 column to yield pure BCAT protein.

Data set [2] addresses T2, human Branched Chain Amino Acid Aminotransferase cytosolic form (hBCATc) (Homo sapiens, UniProt P54687).
T2 construct: inferred from purification on a Ni-charged chelating column with imidazole elution; made in house; host or cells: E. coli BL21(DE3)
T2 sequence (P54687 1-386): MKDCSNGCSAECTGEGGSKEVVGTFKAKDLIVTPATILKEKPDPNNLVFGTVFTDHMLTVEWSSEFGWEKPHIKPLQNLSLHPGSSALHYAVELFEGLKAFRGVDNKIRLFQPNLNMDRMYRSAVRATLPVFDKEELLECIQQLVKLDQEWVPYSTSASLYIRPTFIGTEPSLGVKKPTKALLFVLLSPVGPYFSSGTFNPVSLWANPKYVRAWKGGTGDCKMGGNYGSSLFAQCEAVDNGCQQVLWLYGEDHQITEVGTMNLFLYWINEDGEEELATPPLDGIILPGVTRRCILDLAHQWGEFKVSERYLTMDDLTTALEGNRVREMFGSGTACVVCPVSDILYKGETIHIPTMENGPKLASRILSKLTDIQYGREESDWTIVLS
Nature of the data set: In vitro coupled enzyme assay, human BCAT cytosolic form. In kind it is biochemical. Conditions: inhibition of recombinant human BCATc; coupled glutamate dehydrogenase/NADH assay, 37° C., pH 7.8; read-out: rhBCATc. The method, then:
as §1, §2

The molecule `Nc1ccc(C(=O)NNS(=O)(=O)c2ccccc2)cc1` [Example 2, Benzoic acid, 4-amino-2-(phenylsulfonyl)hydrazide] had a melting point of 171 to 173 °C. For the same molecule, in data set [1], the IC50 was found to be 28.1 µM. Also, the IC50 in data set [2] was 60 µM.

Turning to `O=C(NNS(=O)(=O)c1ccccc1)c1ccc(NCc2ccccc2)cc1` [Example 16, 4-Benzylamino-benzoic acid 2-(phenylsulfonyl)hydrazide], the melting point was 214 to 215 °C. In addition, the IC50 in data set [1] was 4.4 µM. Also, the IC50 in data set [2] was 27 µM.

For the molecule `CC(C)(C)c1ccc(C(=O)NNS(=O)(=O)c2ccccc2)cc1` [Example 24, 4-(1,1-Dimethylethyl)-benzoic acid, 2-(phenylsulfonyl)hydrazide], the melting point was in the range of 197 to 199 °C. The IC50 in data set [1] was 1.2 µM. For the same molecule, the IC50 in data set [2] turned out to be 57 µM.

Take `O=C(NNS(=O)(=O)c1ccccc1)c1ccc(-c2ccccc2)cc1` [Example 25, [1,1′-Biphenyl]-4-carboxylic acid, 2-(phenylsulfonyl)hydrazide]: the melting point is 216 to 219 °C. The IC50 in data set [1] turned out to be 1.5 µM. Further, in data set [2], the IC50 came out at 16 µM.

As for `O=C(NNS(=O)(=O)c1ccccc1)c1ccc(Oc2ccccc2)cc1` [Example 28, 4-Phenoxybenzoic acid, 2-(phenylsulfonyl)hydrazide], the IC50 was found to be 1.5 µM in data set [1] and 37 µM in data set [2].

Turning to `O=C(NNS(=O)(=O)c1ccccc1)c1ccc(OCc2ccccc2)cc1` [Example 29], the melting point lay in the range of 159 to 160 °C. Moreover, the IC50 in data set [1] came to 48 µM. Also, the IC50 in data set [2] amounted to 26 µM.

As for `O=C(NNS(=O)(=O)c1ccccc1)c1ccc(C#Cc2ccccc2)cc1` [Example 32, 4-Phenacetylenyl-benzoic acid, 2-(phenylsulfonyl)hydrazide], the melting point was 175 °C (dec.). For the same molecule, the IC50 in data set [1] stood at 1.3 µM. Further, the IC50 in data set [2] amounted to 27.6 µM.

Molecule `O=C(NNS(=O)(=O)c1ccccc1)c1ccc(CCc2ccccc2)cc1` [Example 33, Phenethyl-benzoic acid, 2-(phenylsulfonyl)hydrazide] showed a melting point of 158 to 159 °C. Further, the IC50 in data set [1] was 0.25 µM. Besides, the IC50 in data set [2] came to 14.3 µM.

For the molecule `O=C(NNS(=O)(=O)c1ccccc1)c1ccc(C#CC2(O)CCCCC2)cc1` [Example 35], the melting point lay within 96 to 97 °C. The IC50 in data set [1] was 2.2 µM. Besides, the IC50 in data set [2] is 43.5 µM.

For the molecule `O=C(NNS(=O)(=O)c1ccccc1)c1ccc(CCC2(O)CCCCC2)cc1` [Example 36], the melting point lay in the range of 158 to 159 °C. In data set [1], the IC50 was 0.25 µM. In data set [2], the IC50 stood at 15.4 µM.

For `CC(C)(C)C#Cc1ccc(C(=O)NNS(=O)(=O)c2ccccc2)cc1` [Example 37, 4-(3,3-Dimethyl-1-butynyl)benzoic acid, 2-(phenylsulfonyl)hydrazide], the melting point is 160 °C (dec.). The IC50 in data set [1] worked out at 4.3 µM. For the same molecule, the IC50 in data set [2] is 34.8 µM.

`CC(C)(C)CCc1ccc(C(=O)NNS(=O)(=O)c2ccccc2)cc1` [Example 38, 4-(3,3-Dimethyl-1-butyl)-benzoic acid, 2-(phenylsulfonyl)hydrazide]: the melting point lay within 168 to 169 °C. In addition, the IC50 in data set [1] turned out to be 0.25 µM. The IC50 in data set [2] is 9.5 µM.

For orientation: melting point means the temperature, or range, at which the solid turns liquid.
